According to PubChem BioAssay AID2060906 (Molecular Pharmacology Branch, DTP, NCI, 2025):
Each block holds one compound with its values, some of them ahead of it.

Test system: 485176-168-R4-J1-PDC complex spheroid growth
Test: Anticancer human tumor 485176-168-R4-J1-PDC patient-derived pancreatic adenocarcinoma cell line growth inhibition [RAS]
Details: for IC50: curve of first compound; for viability, T/C: stronger effect = lower value
Procedure, shortened: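 Multi-cell-type spheroids: tumor cells plus HUVEC endothelial cells and mesenchymal stem cells. RAS-pathway inhibitors were combined with targeted agents, each dosed in half-log steps down from clinical Cmax, or from 10 microM when Cmax was unknown.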

[1] = second compound 0.00316 µM, first compound 0.0316 µM
[2] = second compound 0.00316 µM, first compound 0.1 µM
[3] = second compound 0.00316 µM, first compound 0.316 µM
[4] = second compound 0.00316 µM, first compound 1 µM
[5] = second compound 0.00316 µM, first compound 3.16 µM
[6] = second compound 0.00316 µM, first compound 10 µM
[7] = second compound 0.01 µM, first compound 0.0316 µM
[8] = second compound 0.01 µM, first compound 0.1 µM
[9] = second compound 0.01 µM, first compound 0.316 µM
[10] = second compound 0.01 µM, first compound 1 µM
[11] = second compound 0.01 µM, first compound 3.16 µM
[12] = second compound 0.01 µM, first compound 10 µM
[13] = second compound 0.0316 µM, first compound 0.0316 µM
[14] = second compound 0.0316 µM, first compound 0.1 µM
[15] = second compound 0.0316 µM, first compound 0.316 µM
[16] = second compound 0.0316 µM, first compound 1 µM
[17] = second compound 0.0316 µM, first compound 3.16 µM
[18] = second compound 0.0316 µM, first compound 10 µM
[19] = second compound 0.1 µM, first compound 0.0316 µM
[20] = second compound 0.1 µM, first compound 0.1 µM
[21] = second compound 0.1 µM, first compound 0.316 µM
[22] = second compound 0.1 µM, first compound 1 µM
[23] = second compound 0.1 µM, first compound 3.16 µM
[24] = second compound 0.1 µM, first compound 10 µM
[25] = second compound 0.316 µM, first compound 0.0316 µM
[26] = second compound 0.316 µM, first compound 0.1 µM
[27] = second compound 0.316 µM, first compound 0.316 µM
[28] = second compound 0.316 µM, first compound 1 µM
[29] = second compound 0.316 µM, first compound 3.16 µM
[30] = second compound 0.316 µM, first compound 10 µM
[31] = second compound 1 µM, first compound 0.0316 µM
[32] = second compound 1 µM, first compound 0.1 µM
[33] = second compound 1 µM, first compound 0.316 µM
[34] = second compound 1 µM, first compound 1 µM
[35] = second compound 1 µM, first compound 3.16 µM
[36] = second compound 1 µM, first compound 10 µM
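Also: spheroids exposed to compounds for seven days before readout.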
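For viability, T/C in this document: luminescence viability expressed relative to DMSO vehicle wells set as 100%.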

- IC50 (second compound 0.00316 µM): 1970 nM
- IC50 (second compound 0.01 µM): 2340 nM
- IC50 (second compound 0.0316 µM): 2090 nM
- IC50 (second compound 0.1 µM): 2220 nM
- IC50 (second compound 0.316 µM): 3650 nM
- IC50 (second compound 1 µM): 1810 nM
SMILES: CC1(O)CCCC1n1c(=O)c(C(F)F)cc2cnc(NC3CCN(S(C)(=O)=O)CC3)nc21 (centres undefined) + C=CC(=O)N1CCN(c2nc(OCC3CCCN3C)nc3c(F)c(-c4nc(N)cc(C)c4C(F)(F)F)c(Cl)cc23)C(C)C1
- viability, T/C [1]: 97%
- viability, T/C [2]: 77.5%
- viability, T/C [3]: 59%
- viability, T/C [4]: 60.3%
- viability, T/C [5]: 55.9%
- viability, T/C [6]: 4.16%
- viability, T/C [7]: 80.2%
- viability, T/C [8]: 61.8%
- viability, T/C [9]: 66.7%
- viability, T/C [10]: 67.7%
- viability, T/C [11]: 43.9%
- viability, T/C [12]: 2.59%
- viability, T/C [13]: 91.2%
- viability, T/C [14]: 81.6%
- viability, T/C [15]: 70.2%
- viability, T/C [16]: 58%
- viability, T/C [17]: 51.5%
- viability, T/C [18]: 2.26%
- viability, T/C [19]: 91.8%
- viability, T/C [20]: 74.5%
- viability, T/C [21]: 68.9%
- viability, T/C [22]: 68.7%
- viability, T/C [23]: 45%
- viability, T/C [24]: 3.32%
- viability, T/C [25]: 103%
- viability, T/C [26]: 62.5%
- viability, T/C [27]: 73.4%
- viability, T/C [28]: 68.1%
- viability, T/C [29]: 62%
- viability, T/C [30]: 3.67%
- viability, T/C [31]: 104%
- viability, T/C [32]: 86.8%
- viability, T/C [33]: 69.4%
- viability, T/C [34]: 49.1%
- viability, T/C [35]: 62.6%
- viability, T/C [36]: 2.11%

- IC50 (second compound 0.00316 µM): 1540 nM
- IC50 (second compound 0.01 µM): 1450 nM
- IC50 (second compound 0.0316 µM): 1460 nM
- IC50 (second compound 0.1 µM): 1680 nM
- IC50 (second compound 0.316 µM): 1510 nM
- IC50 (second compound 1 µM): 1460 nM
SMILES: CCC(CC)c1cc(NC2CCC(N)C2)n2nccc2n1 (centres undefined) + C=CC(=O)N1CCN(c2nc(OCC3CCCN3C)nc3c(F)c(-c4nc(N)cc(C)c4C(F)(F)F)c(Cl)cc23)C(C)C1
- viability, T/C [1]: 103%
- viability, T/C [2]: 101%
- viability, T/C [3]: 102%
- viability, T/C [4]: 78.5%
- viability, T/C [5]: 3.09%
- viability, T/C [6]: 0.53%
- viability, T/C [7]: 111%
- viability, T/C [8]: 98.3%
- viability, T/C [9]: 77.1%
- viability, T/C [10]: 72.9%
- viability, T/C [11]: 3.14%
- viability, T/C [12]: 0.53%
- viability, T/C [13]: 101%
- viability, T/C [14]: 103%
- viability, T/C [15]: 103%
- viability, T/C [16]: 72.9%
- viability, T/C [17]: 2.99%
- viability, T/C [18]: 0.57%
- viability, T/C [19]: 97.7%
- viability, T/C [20]: 104%
- viability, T/C [21]: 93.3%
- viability, T/C [22]: 88.8%
- viability, T/C [23]: 3.12%
- viability, T/C [24]: 0.5%
- viability, T/C [25]: 87.8%
- viability, T/C [26]: 93.5%
- viability, T/C [27]: 95.3%
- viability, T/C [28]: 76.2%
- viability, T/C [29]: 3.3%
- viability, T/C [30]: 0.53%
- viability, T/C [31]: 94.8%
- viability, T/C [32]: 110%
- viability, T/C [33]: 89.6%
- viability, T/C [34]: 73.3%
- viability, T/C [35]: 2.65%
- viability, T/C [36]: 0.64%
